Measurements as given in patent publication US4508663A, “Process for preparing thiosulfenamide derivatives of N-phosphonomethylglycinonitriles” (Monsanto Company, priority 1983, dated 1985).

Tests used:
Assay in all cases: post-emergence herbicidal activity, greenhouse
Format in all cases: in vivo
Downy Brome = system: Downy Brome
Description: (§1) A good grade of top soil is placed in aluminum pans having holes in the bottom and compacted to a depth of 0.95 to 1.27 cm. from the top of the pan. A predetermined number of seeds of each of several dicotyledonous and monocotyledonous annual plant species and/or vegetative propagules for the perennial plant species are placed on the soil and pressed into the soil surface. The seeds and/or vegetative propagules are covered with soil and leveled. The pans are then placed on a sand bench in the greenhouse and watered from below as needed. After the plants reach the desired age (two to three weeks), each pan except for the control pans is removed individually to a spraying chamber and sprayed by means of an atomizer operating at a positive air pressure of approximately 1.46 kg/cm^2 absolute. The atomizer contains 6 ml. of a solution or suspension of the chemical. In that 6 ml., is an amount of a cyclohexanone emulsifying agent mixture to give a spray solution or suspension which contains about 0.4% by weight of the emulsifier. The spray solution or suspension contains a sufficient amount of the candidate chemical in order to give application rates corresponding to those set forth in the tables. The spray solution is prepared by taking an aliquot of a 1.0% by weight stock solution or suspension of the candidate chemical in an organic solvent such as acetone or tetrahydrofuran or in water. The emulsifying agent employed is a mixture comprising 35 weight percent butylamine dodecylbenzene sulfonate and 65 weight percent of a tall oil ethylene oxide condensate having about 11 moles of ethylene oxide per mole of tall oil. The pans are returned to the greenhouse and watered as before and the injury to the plants as compared to the control is observed at approximately two and four weeks as indicated in the tables under WAT and the results recorded. In some instances, the two-week observations are omitted.
(§2) The post-emergence herbicidal activity index used in Table I is as follows: […]

Lambsquarters = system: Lambsquarters
Description: as §1, §2

Morningglory = system: Morningglory
Description: as §1, §2

Quackgrass = settings: Table I
Description: as §1, §2

Johnsongrass = settings: Table I
Description: as §1, §2

Yellow Nutsedge = settings: Table I
Description: as §1, §2

Canada Thistle = settings: Table I
Description: as §1, §2

Cocklebur = system: Cocklebur
Description: as §1, §2

Smartweed = system: Smartweed
Description: as §1, §2

Velvetleaf = system: Velvetleaf
Description: as §1, §2

Barnyardgrass = system: Barnyardgrass
Description: as §1, §2

Sugar Beet = settings: Table II, 4 WAT
Description: as §1, §2

Rice = settings: Table II, 4 WAT
Description: as §1, §2

Hemp Sesbania = settings: Table II, 4 WAT
Description: as §1, §2

Panicum Spp = settings: Table II, 4 WAT
Description: as §1, §2

Crabgrass = settings: Table II, 4 WAT
Description: as §1, §2

Wheat = settings: Table II, 4 WAT
Description: as §1, §2

Wild Buckwheat = settings: Table II, 4 WAT
Description: as §1, §2

Sorghum = settings: Table II, 4 WAT
Description: as §1, §2

Soybean = settings: Table II, 4 WAT
Description: as §1, §2

## COc1ccc(SSN(CC#N)CP(=O)(Oc2ccccc2)Oc2ccccc2)cc1 [III, Phosphonic acid, [[(cyanomethyl)[(4-methoxyphenyl)-dithio]amino]methyl]-, diphenyl ester]
Downy Brome; Table I, 4 WAT, 5.6 kg/h
  post-emergence herbicidal activity index: 0 (0-24% control)
Downy Brome; Table I, 4 WAT, 11.2 kg/h
  post-emergence herbicidal activity index: 2 (50-74% control)
Lambsquarters; Table I, 4 WAT, 5.6 kg/h
  post-emergence herbicidal activity index: 3 (75-99% control)
Lambsquarters; Table I, 4 WAT, 11.2 kg/h
  post-emergence herbicidal activity index: 4 (100% control)
Morningglory; Table I, 4 WAT, 5.6 kg/h
  post-emergence herbicidal activity index: 1 (25-49% control)
Morningglory; Table I, 4 WAT, 11.2 kg/h
  post-emergence herbicidal activity index: 2 (50-74% control)
Quackgrass; 4 WAT, 5.6 kg/h
  post-emergence herbicidal activity index: 0 (0-24% control)
Quackgrass; 4 WAT, 11.2 kg/h
  post-emergence herbicidal activity index: 1 (25-49% control)
Johnsongrass; 4 WAT, 5.6 kg/h
  post-emergence herbicidal activity index: 2 (50-74% control)
Johnsongrass; 4 WAT, 11.2 kg/h
  post-emergence herbicidal activity index: 2 (50-74% control)
Yellow Nutsedge; 4 WAT, 5.6 kg/h
  post-emergence herbicidal activity index: 1 (25-49% control)
Yellow Nutsedge; 4 WAT, 11.2 kg/h
  post-emergence herbicidal activity index: 2 (50-74% control)
Canada Thistle; 4 WAT, 5.6 kg/h
  post-emergence herbicidal activity index: 2 (50-74% control)
Canada Thistle; 4 WAT, 11.2 kg/h
  post-emergence herbicidal activity index: 2 (50-74% control)
Cocklebur; Table I, 4 WAT, 5.6 kg/h
  post-emergence herbicidal activity index: 1 (25-49% control)
Cocklebur; Table I, 4 WAT, 11.2 kg/h
  post-emergence herbicidal activity index: 2 (50-74% control)
Smartweed; Table I, 4 WAT, 11.2 kg/h
  post-emergence herbicidal activity index: 0 (0-24% control)
Velvetleaf; Table I, 4 WAT, 5.6 kg/h
  post-emergence herbicidal activity index: 1 (25-49% control)
Velvetleaf; Table I, 4 WAT, 11.2 kg/h
  post-emergence herbicidal activity index: 1 (25-49% control)
Barnyardgrass; Table I, 4 WAT, 5.6 kg/h
  post-emergence herbicidal activity index: 2 (50-74% control)
Barnyardgrass; Table I, 4 WAT, 11.2 kg/h
  post-emergence herbicidal activity index: 2 (50-74% control)

## N#CCN(CP(=O)(Oc1ccccc1)Oc1ccccc1)SSc1cccc(C(F)(F)F)c1 [IV, Phosphonic acid, [[(cyanomethyl)[[3-(trifluoromethyl)phenyl]dithio]amino]methyl]-, diphenyl ester]
Downy Brome; Table I, 2 WAT, 5.6 kg/h
  post-emergence herbicidal activity index: 1 (25-49% control)
Downy Brome; Table I, 2 WAT, 11.2 kg/h
  post-emergence herbicidal activity index: 0 (0-24% control)
Downy Brome; Table I, 4 WAT, 5.6 kg/h
  post-emergence herbicidal activity index: 1 (25-49% control)
Downy Brome; Table I, 4 WAT, 11.2 kg/h
  post-emergence herbicidal activity index: 2 (50-74% control)
Downy Brome; Table II, 4 WAT, 1.12 kg/h
  post-emergence herbicidal activity index: 0 (0-24% control)
Downy Brome; Table II, 4 WAT, 5.6 kg/h
  post-emergence herbicidal activity index: 1 (25-49% control)
Lambsquarters; Table I, 2 WAT, 5.6 kg/h
  post-emergence herbicidal activity index: 3 (75-99% control)
Lambsquarters; Table I, 2 WAT, 11.2 kg/h
  post-emergence herbicidal activity index: 3 (75-99% control)
Lambsquarters; Table I, 4 WAT, 5.6 kg/h
  post-emergence herbicidal activity index: 3 (75-99% control)
Lambsquarters; Table I, 4 WAT, 11.2 kg/h
  post-emergence herbicidal activity index: 4 (100% control)
Lambsquarters; Table II, 4 WAT, 1.12 kg/h
  post-emergence herbicidal activity index: 2 (50-74% control)
Lambsquarters; Table II, 4 WAT, 5.6 kg/h
  post-emergence herbicidal activity index: 4 (100% control)
Morningglory; Table I, 2 WAT, 5.6 kg/h
  post-emergence herbicidal activity index: 1 (25-49% control)
Morningglory; Table I, 2 WAT, 11.2 kg/h
  post-emergence herbicidal activity index: 1 (25-49% control)
Morningglory; Table I, 4 WAT, 5.6 kg/h
  post-emergence herbicidal activity index: 3 (75-99% control)
Morningglory; Table I, 4 WAT, 11.2 kg/h
  post-emergence herbicidal activity index: 2 (50-74% control)
Morningglory; Table II, 4 WAT, 1.12 kg/h
  post-emergence herbicidal activity index: 1 (25-49% control)
Morningglory; Table II, 4 WAT, 5.6 kg/h
  post-emergence herbicidal activity index: 2 (50-74% control)
Sugar Beet; 1.12 kg/h
  post-emergence herbicidal activity index: 0 (0-24% control)
Sugar Beet; 5.6 kg/h
  post-emergence herbicidal activity index: 0 (0-24% control)
Rice; 1.12 kg/h
  post-emergence herbicidal activity index: 0 (0-24% control)
Rice; 5.6 kg/h
  post-emergence herbicidal activity index: 2 (50-74% control)
Hemp Sesbania; 1.12 kg/h
  post-emergence herbicidal activity index: 0 (0-24% control)
Hemp Sesbania; 5.6 kg/h
  post-emergence herbicidal activity index: 1 (25-49% control)
Panicum Spp; 1.12 kg/h
  post-emergence herbicidal activity index: 0 (0-24% control)
Panicum Spp; 5.6 kg/h
  post-emergence herbicidal activity index: 2 (50-74% control)
Quackgrass; 2 WAT, 5.6 kg/h
  post-emergence herbicidal activity index: 1 (25-49% control)
Quackgrass; 2 WAT, 11.2 kg/h
  post-emergence herbicidal activity index: 0 (0-24% control)
Quackgrass; 4 WAT, 5.6 kg/h
  post-emergence herbicidal activity index: 2 (50-74% control)
Quackgrass; 4 WAT, 11.2 kg/h
  post-emergence herbicidal activity index: 0 (0-24% control)
Crabgrass; 1.12 kg/h
  post-emergence herbicidal activity index: 3 (75-99% control)
Crabgrass; 5.6 kg/h
  post-emergence herbicidal activity index: 3 (75-99% control)
Johnsongrass; 2 WAT, 5.6 kg/h
  post-emergence herbicidal activity index: 2 (50-74% control)
Johnsongrass; 2 WAT, 11.2 kg/h
  post-emergence herbicidal activity index: 1 (25-49% control)
Johnsongrass; 4 WAT, 5.6 kg/h
  post-emergence herbicidal activity index: 3 (75-99% control)
Johnsongrass; 4 WAT, 11.2 kg/h
  post-emergence herbicidal activity index: 1 (25-49% control)
Yellow Nutsedge; 2 WAT, 5.6 kg/h
  post-emergence herbicidal activity index: 1 (25-49% control)
Yellow Nutsedge; 2 WAT, 11.2 kg/h
  post-emergence herbicidal activity index: 1 (25-49% control)
Yellow Nutsedge; 4 WAT, 5.6 kg/h
  post-emergence herbicidal activity index: 2 (50-74% control)
Yellow Nutsedge; 4 WAT, 11.2 kg/h
  post-emergence herbicidal activity index: 2 (50-74% control)
Canada Thistle; 2 WAT, 5.6 kg/h
  post-emergence herbicidal activity index: 1 (25-49% control)
Canada Thistle; 2 WAT, 11.2 kg/h
  post-emergence herbicidal activity index: 1 (25-49% control)
Canada Thistle; 4 WAT, 5.6 kg/h
  post-emergence herbicidal activity index: 2 (50-74% control)
Canada Thistle; 4 WAT, 11.2 kg/h
  post-emergence herbicidal activity index: 1 (25-49% control)
Wheat; 1.12 kg/h
  post-emergence herbicidal activity index: 0 (0-24% control)
Wheat; 5.6 kg/h
  post-emergence herbicidal activity index: 1 (25-49% control)
Wild Buckwheat; 1.12 kg/h
  post-emergence herbicidal activity index: 0 (0-24% control)
Wild Buckwheat; 5.6 kg/h
  post-emergence herbicidal activity index: 2 (50-74% control)
Cocklebur; Table I, 2 WAT, 5.6 kg/h
  post-emergence herbicidal activity index: 1 (25-49% control)
Cocklebur; Table I, 2 WAT, 11.2 kg/h
  post-emergence herbicidal activity index: 2 (50-74% control)
Cocklebur; Table I, 4 WAT, 5.6 kg/h
  post-emergence herbicidal activity index: 2 (50-74% control)
Cocklebur; Table I, 4 WAT, 11.2 kg/h
  post-emergence herbicidal activity index: 2 (50-74% control)
Cocklebur; Table II, 4 WAT, 1.12 kg/h
  post-emergence herbicidal activity index: 1 (25-49% control)
Cocklebur; Table II, 4 WAT, 5.6 kg/h
  post-emergence herbicidal activity index: 3 (75-99% control)
Sorghum; 1.12 kg/h
  post-emergence herbicidal activity index: 2 (50-74% control)
Sorghum; 5.6 kg/h
  post-emergence herbicidal activity index: 3 (75-99% control)
Smartweed; Table I, 2 WAT, 5.6 kg/h
  post-emergence herbicidal activity index: 0 (0-24% control)
Smartweed; Table I, 2 WAT, 11.2 kg/h
  post-emergence herbicidal activity index: 1 (25-49% control)
Smartweed; Table I, 4 WAT, 5.6 kg/h
  post-emergence herbicidal activity index: 0 (0-24% control)
Smartweed; Table I, 4 WAT, 11.2 kg/h
  post-emergence herbicidal activity index: 4 (100% control)
Smartweed; Table II, 4 WAT, 1.12 kg/h
  post-emergence herbicidal activity index: 1 (25-49% control)
Smartweed; Table II, 4 WAT, 5.6 kg/h
  post-emergence herbicidal activity index: 2 (50-74% control)
Soybean; 1.12 kg/h
  post-emergence herbicidal activity index: 1 (25-49% control)
Soybean; 5.6 kg/h
  post-emergence herbicidal activity index: 1 (25-49% control)
Velvetleaf; Table I, 2 WAT, 5.6 kg/h
  post-emergence herbicidal activity index: 0 (0-24% control)
Velvetleaf; Table I, 2 WAT, 11.2 kg/h
  post-emergence herbicidal activity index: 0 (0-24% control)
Velvetleaf; Table I, 4 WAT, 5.6 kg/h
  post-emergence herbicidal activity index: 1 (25-49% control)
Velvetleaf; Table I, 4 WAT, 11.2 kg/h
  post-emergence herbicidal activity index: 1 (25-49% control)
Velvetleaf; Table II, 4 WAT, 1.12 kg/h
  post-emergence herbicidal activity index: 0 (0-24% control)
Velvetleaf; Table II, 4 WAT, 5.6 kg/h
  post-emergence herbicidal activity index: 1 (25-49% control)
Barnyardgrass; Table I, 2 WAT, 5.6 kg/h
  post-emergence herbicidal activity index: 2 (50-74% control)
Barnyardgrass; Table I, 2 WAT, 11.2 kg/h
  post-emergence herbicidal activity index: 2 (50-74% control)
Barnyardgrass; Table I, 4 WAT, 5.6 kg/h
  post-emergence herbicidal activity index: 2 (50-74% control)
Barnyardgrass; Table I, 4 WAT, 11.2 kg/h
  post-emergence herbicidal activity index: 2 (50-74% control)
Barnyardgrass; Table II, 4 WAT, 1.12 kg/h
  post-emergence herbicidal activity index: 0 (0-24% control)
Barnyardgrass; Table II, 4 WAT, 5.6 kg/h
  post-emergence herbicidal activity index: 3 (75-99% control)
